Reference: patent publication US20200009173A1, “TRIAZOLE-CONTAINING MACROLIDES AND OPHTHALMIC USES THEREFOR” (Tetard, Inc., priority 2017, published 2020)
≈ marks a conversion by molar mass, not a printed value. Read-outs that look alike come from different tables or passages of the source. One block for each molecule: values may come before it.

How the values were obtained:
P. Acnes = experiment: MICs of solithromycin and comparator drugs against P. acnes; format: cell-based; details: for MIC50 / MIC90: Cutibacterium acnes
Excerpt: EXAMPLE. The formulations described herein show overall higher potency against ocular pathogens than commercial standards. MICs (μg/ml) of Solithromycin and Comparator Drugs against P. Acnes (51 Species)

CXCL8 = CXCL8 (IL-8) production in LPS-stimulated PMA-differentiated U937 cells (ELISA); format: cell-based, human
Description: (§1) EXAMPLE. […] Cells. The human monocytic cell line U937 was obtained from the American Type Culture Collection (ATCC, Rockville, Md.). PBMCs from COPD patients were obtained from Brompton hospital and separated by AccuSPIN (Sigma-Aldrich). […] U937 cells were differentiated into adherent macrophage-like morphology by exposure to PMA (50 ng/ml) for 48 h in complete growth medium. Cell viability was assessed microscopically by trypan blue staining. Cell toxicity was determined by MTT assay as needed. This study was approved by the ethics committee of the Royal Brompton Hospitals, and all subjects gave written informed consent. Cytokine ELISA. TNFα and IL-8 concentrations in the supernatant of cell cultures were determined by sandwich ELISA according to the manufacturer's instructions (R&D Systems Europe, Abingdon, UK). Statistical analysis. The results were expressed as the mean±SEM. Comparisons of data in two groups were performed using the Student's t test or the Wilcoxon signed rank test. Multiple comparisons were made by one-way ANOVA with post hoc test (Dunnett's) as appropriate. The difference was considered significant at p<0.05. […] Anti-inflammatory effects of solithromycin in U937 cells.

MMP9 = MMP9 activity in PMA-stimulated U937 cells (gelatin zymography); format: cell-based, human
Description: EXAMPLE. […] Cells. The human monocytic cell line U937 was obtained from the American Type Culture Collection (ATCC, Rockville, Md.). PBMCs from COPD patients were obtained from Brompton hospital and separated by AccuSPIN (Sigma-Aldrich). […] U937 cells were differentiated into adherent macrophage-like morphology by exposure to PMA (50 ng/ml) for 48 h in complete growth medium. Cell viability was assessed microscopically by trypan blue staining. Cell toxicity was determined by MTT assay as needed. This study was approved by the ethics committee of the Royal Brompton Hospitals, and all subjects gave written informed consent. Zymography. MMP9 enzyme activity was measured by gelatin zymography. […] After electrophoresis, gels were incubated and rinsed with Novex® zymogram renaturing buffer (Invitrogen) for 30 min at room temperature. The gels were then rinsed in Novex® zymogram developing buffer (Invitrogen) for 30 min at room temperature prior to overnight incubation in the developing buffer at 37° C. After incubation, the gels were stained using a Colloidal Blue Staining Kit (Invitrogen) to visualize the zymogen bands. Statistical analysis. The results were expressed as the mean±SEM. Comparisons of data in two groups were performed using the Student's t test or the Wilcoxon signed rank test. Multiple comparisons were made by one-way ANOVA with post hoc test (Dunnett's) as appropriate. The difference was considered significant at p<0.05.

TNFα = TNFα production in LPS-stimulated PMA-differentiated U937 cells (ELISA); format: cell-based, human
Description: as §1

H. influenzae = experiment: MICs of solithromycin and comparator drugs, H. influenzae (30 species); format: cell-based; details: for MIC50 / MIC90: Haemophilus influenzae
Excerpt: (§2) EXAMPLE. The formulations described herein show overall higher potency against ocular pathogens than commercial standards.
(§3) MICs (μg/ml) of Solithromycin and Comparator Drugs against Bacterial Species

MSRA = experiment: MICs of solithromycin and comparator drugs, MSRA (30 species); format: cell-based; details: for I (intermediate susceptibility) / NS (not susceptible) / S (susceptible): 30 species
Excerpt: as §2, §3

S. epidermidis = experiment: MICs of solithromycin and comparator drugs, S. epidermidis (30 species); format: cell-based; details: for MIC50 / MIC90: Staphylococcus epidermidis
Excerpt: as §2, §3

MSSA = experiment: MICs of solithromycin and comparator drugs, MSSA (31 species); format: cell-based; details: for MIC50 / MIC90: Staphylococcus aureus, MSSA
Excerpt: as §2, §3

S. pneumoniae = experiment: MICs of solithromycin and comparator drugs, S. pneumoniae (30 species); format: cell-based; details: for MIC50 / MIC90: Streptococcus pneumoniae
Excerpt: as §2, §3

[1] = at a higher concentration (333 μM)

Compound: C=CC1=C(C(=O)O)N2C(=O)[C@@H](NC(=O)/C(=N\O)c3csc(N)n3)[C@H]2SC1 [Cefdinir]
- MIC Range (P. Acnes): ≤0.015 to 0.12 µg/mL
- MIC50 (P. Acnes; 51 species): 0.03 µg/mL (≈ 0.0759 µM)
- MIC90 (P. Acnes; 51 species): 0.12 µg/mL (≈ 0.303 µM)

Compound: C=CC1=C(C(=O)O)N2C(=O)[C@@H](NC(=O)/C(=N\OCC(=O)O)c3csc(N)n3)[C@H]2SC1 [Cefixime]
- MIC Range (P. Acnes): ≤0.03 to 0.5 µg/mL
- MIC50 (P. Acnes; 51 species): 0.25 µg/mL (≈ 0.551 µM)
- MIC90 (P. Acnes; 51 species): 0.5 µg/mL (≈ 1.1 µM)

Compound: COCC1=C(C(=O)O)N2C(=O)[C@@H](NC(=O)/C(=N\OC)c3csc(N)n3)[C@H]2SC1 [Cefpodoxime]
- MIC Range (P. Acnes): ≤0.015 to 2 µg/mL
- MIC50 (P. Acnes; 51 species): 0.5 µg/mL (≈ 1.17 µM)
- MIC90 (P. Acnes; 51 species): 2 µg/mL (≈ 4.68 µM)

Compound: CC[C@H]1OC(=O)[C@H](C)[C@@H](O[C@H]2C[C@@](C)(OC)[C@@H](O)[C@H](C)O2)[C@H](C)[C@@H](O[C@@H]2O[C@H](C)C[C@H](N(C)C)[C@H]2O)[C@](C)(OC)C[C@@H](C)C(=O)[C@H](C)[C@@H](O)[C@]1(C)O [Clarithromycin, clarithromycin]
- MIC Range (P. Acnes): ≤0.015 to 0.5 µg/mL
- MIC50 (P. Acnes; 51 species): ≤ 0.015 µg/mL
- MIC90 (P. Acnes; 51 species): 0.25 µg/mL (≈ 0.334 µM)
- IC50 (CXCL8; Homo sapiens, U-937, LPS, PMA-differentiated U937 cells, read-out: IC50 on CXCL8 release): 506 ± 44 µM
- effect on IL-8 production (CXCL8; [1]): modest effects
- inhibitory effect on MMP9 activity, lower than solithromycin (MMP9): 10 fold
- IC50 (TNFα; Homo sapiens, U-937, LPS, PMA-differentiated U937 cells, read-out: IC50 on TNFα release): 426 ± 63.9 µM
- effect on TNFα production (TNFα; [1]): modest effects

Compound: C[C@H]1c2cccc(O)c2C(=O)C2=C(O)[C@]3(O)C(=O)C(C(N)=O)=C(O)[C@@H](N(C)C)[C@@H]3[C@@H](O)[C@@H]21 [Doxycycline]
- MIC Range (P. Acnes): ≤0.008 to 1 µg/mL
- MIC50 (P. Acnes; 51 species): 0.06 µg/mL (≈ 0.135 µM)
- MIC90 (P. Acnes; 51 species): 0.12 µg/mL (≈ 0.27 µM)

Compound: C[C@H]1COc2c(N3CCN(C)CC3)c(F)cc3c(=O)c(C(=O)O)cn1c23 [Levofloxacin]
- MIC Range (P. Acnes): 0.06 to 2 µg/mL
- MIC50 (P. Acnes; 51 species): 1 µg/mL (≈ 2.77 µM)
- MIC90 (P. Acnes; 51 species): 1 µg/mL (≈ 2.77 µM)

Compound: CC(=O)NC[C@H]1CN(c2ccc(N3CCOCC3)c(F)c2)C(=O)O1 [Linezolid]
- MIC Range (P. Acnes): ≤0.03 to 0.5 µg/mL
- MIC50 (P. Acnes; 51 species): 0.25 µg/mL (≈ 0.741 µM)
- MIC90 (P. Acnes; 51 species): 0.5 µg/mL (≈ 1.48 µM)

Compound: COc1c(N2C[C@@H]3CCCN[C@@H]3C2)c(F)cc2c(=O)c(C(=O)O)cn(C3CC3)c12 [Moxifloxacin]
- I (intermediate susceptibility) (H. influenzae): 0%
- MIC Range (H. influenzae): 0.015 to 0.06 µg/mL
- NS (not susceptible) (H. influenzae): 0%
- S (susceptible) (H. influenzae): 100%
- MIC50 (H. influenzae): 0.03 µg/mL (≈ 0.0747 µM)
- MIC90 (H. influenzae): 0.06 µg/mL (≈ 0.149 µM)
- MIC50 (MSRA): 2 µg/mL (≈ 4.98 µM)
- MIC90 (MSRA): 8 µg/mL (≈ 19.9 µM)
- I (intermediate susceptibility) (MSRA): 3%
- NS (not susceptible) (MSRA): 87%
- S (susceptible) (MSRA): 10%
- I (intermediate susceptibility) (S. epidermidis): 3%
- NS (not susceptible) (S. epidermidis): 13%
- S (susceptible) (S. epidermidis): 83%
- MIC50 (S. epidermidis): 0.06 µg/mL (≈ 0.149 µM)
- MIC90 (S. epidermidis): 4 µg/mL (≈ 9.96 µM)
- I (intermediate susceptibility) (MSSA): 0%
- MIC Range (MSSA): 0.015 to 2 µg/mL
- NS (not susceptible) (MSSA): 6%
- S (susceptible) (MSSA): 94%
- MIC50 (MSSA): 0.06 µg/mL (≈ 0.149 µM)
- MIC90 (MSSA): 0.12 µg/mL (≈ 0.299 µM)
- I (intermediate susceptibility) (S. pneumoniae): 0%
- MIC Range (S. pneumoniae): 0.015 to 0.25 µg/mL
- NS (not susceptible) (S. pneumoniae): 0%
- S (susceptible) (S. pneumoniae): 100%
- MIC50 (S. pneumoniae): 0.12 µg/mL (≈ 0.299 µM)
- MIC90 (S. pneumoniae): 0.25 µg/mL (≈ 0.623 µM)

- IC50 (MMP9; Homo sapiens, U-937): 97.9 µM
Compound: CC[C@H]1OC(=O)[C@H](C)C(=O)[C@H](C)[C@@H](O[C@@H]2O[C@H](C)C[C@H](N(C)C)[C@H]2O)[C@](C)(OC)C[C@@H](C)C(=O)[C@H](C)[C@H]2N(CCCCn3cnc(-c4cccnc4)c3)C(=O)O[C@]12C [Telithromycin]
- effect on CXCL8 production (CXCL8; at 100 μM): did not inhibit
- effect on TNFα production (TNFα; at 100 μM): did not inhibit

Compound: NC[C@H]1O[C@H](O[C@H]2[C@H](O)[C@@H](O[C@H]3O[C@H](CO)[C@@H](O)[C@H](N)[C@H]3O)[C@H](N)C[C@@H]2N)[C@H](N)C[C@@H]1O [Tobramycin]
- MIC Range (H. influenzae): 2 to 8 µg/mL
- MIC50 (H. influenzae): 4 µg/mL (≈ 8.56 µM)
- MIC90 (H. influenzae): 4 µg/mL (≈ 8.56 µM)
- MIC50 (MSRA): 1 µg/mL (≈ 2.14 µM)
- MIC90 (MSRA): > 64 µg/mL
- I (intermediate susceptibility) (MSRA): 3%
- NS (not susceptible) (MSRA): 30%
- S (susceptible) (MSRA): 67%
- I (intermediate susceptibility) (S. epidermidis): 3%
- MIC Range (S. epidermidis): 0.12 to 64 µg/mL
- NS (not susceptible) (S. epidermidis): 23%
- S (susceptible) (S. epidermidis): 73%
- MIC50 (S. epidermidis): 0.5 µg/mL (≈ 1.07 µM)
- MIC90 (S. epidermidis): 32 µg/mL (≈ 68.4 µM)
- I (intermediate susceptibility) (MSSA): 0%
- MIC Range (MSSA): 0.12 to 4 µg/mL
- NS (not susceptible) (MSSA): 0%
- S (susceptible) (MSSA): 100%
- MIC50 (MSSA): 0.5 µg/mL (≈ 1.07 µM)
- MIC90 (MSSA): 0.5 µg/mL (≈ 1.07 µM)
- MIC Range (S. pneumoniae): 4 to 16 µg/mL
- MIC50 (S. pneumoniae): 16 µg/mL (≈ 34.2 µM)
- MIC90 (S. pneumoniae): 16 µg/mL (≈ 34.2 µM)

Compound: CN[C@H](CC(C)C)C(=O)N[C@H]1C(=O)N[C@@H](CC(N)=O)C(=O)N[C@H]2C(=O)N[C@H]3C(=O)N[C@H](C(=O)N[C@H](C(=O)O)c4cc(O)cc(O)c4-c4cc3ccc4O)[C@H](O)c3ccc(c(Cl)c3)Oc3cc2cc(c3O[C@@H]2O[C@H](CO)[C@@H](O)[C@H](O)[C@H]2O[C@H]2C[C@](C)(N)[C@H](O)[C@H](C)O2)Oc2ccc(cc2Cl)[C@H]1O [Vancomycin]
- MIC Range (P. Acnes; 51 species): 0.12 to 1 µg/mL
- MIC50 (P. Acnes; 51 species): 1 µg/mL (≈ 0.69 µM)
- MIC90 (P. Acnes; 51 species): 1 µg/mL (≈ 0.69 µM)

Compound: CC[C@H]1OC(=O)[C@H](C)[C@@H](O[C@H]2C[C@@](C)(OC)[C@@H](O)[C@H](C)O2)[C@H](C)[C@@H](O[C@@H]2O[C@H](C)C[C@H](N(C)C)[C@H]2O)[C@](C)(O)C[C@@H](C)C(=O)[C@H](C)[C@@H](O)[C@]1(C)O [erythromycin]
- effect on IL-8 production (CXCL8; concentration not given): did not inhibit
- effect on MMP9 activity (MMP9): no effect
- effect on TNFα production (TNFα; concentration not given): did not inhibit
